Reference: US8481551B2, “Gyrase and topoisomerase IV inhibitors” (Vertex Pharmaceuticals Incorporated, priority 2011, dated 2013)
Where a name gives a salt, the structure may show the parent alone.

Legend:
Klebsiella pneumoniae = assay: Gyrase MIC against Gram negatives, microdilution broth method (Protocol 2); format: cell-based; conditions: for MIC90: Klebsiella pneumoniae, 12 isolates tested
Bacteroides fragilis = assay: Gyrase MIC, agar dilution method (Protocol 3); format: cell-based; conditions: 25 isolates tested
[1] = Seven-day oral (gavage) toxicity and toxicokinetics study in rats; format: in vivo, Crl:CD(SD) rats; conditions: for Mean food consumption: Compound 13 once daily 100 or 200 mg/kg, Compound 23A twice daily 300 mg/kg, not considered adverse; for adverse observations / mean body weight: 7 days oral gavage; for histopathological findings: any dose regimen; for exposures for different dosage levels: toxicokinetics; for NOEL (No-Observable-Effect-Level) / dose levels without adverse toxicity: male, 7 days
Text: Crl:CD(SD) rats were obtained from Charles River Laboratories of Stone Ridge, N.Y. The animals were laboratory bred and experimentally naïve. Rats were chosen because they are a species that is commonly used for nonclinical toxicity evaluations.
Forty rats (20 noncannulated males and 20 males with jugular vein cannulas) were ordered. From these animals, 15 noncannulated males and 15 cannulated males were used. Animals were as uniform in age as possible. The rats were prepubertal to young adult, approximately 9 weeks of age at initiation of dosing. Their supplier-calculated birth date was retained in the study records. The weight range for the animals at the time of allocation to groups was 218.5-306.3 g.
Animals received the test article or vehicle by oral gavage for 7 consecutive days and were terminated the day following completion of dosing. The first day of dosing was designated as Day 1 of the study. The animals were evaluated for changes in clinical signs, body weight, and other parameters as described below.
The vehicle and test article were administered by oral gavage once daily for 7 consecutive days at a dose volume of 10 mL/kg body weight for Group A and Groups B-D, respectively. The test article and vehicle were administered by oral gavage twice daily, approximately 8 hours apart, for 7 consecutive days at a dose volume of 10 mL/kg body weight for Group E and Group F, respectively. The actual volume administered to each animal was calculated and adjusted based on the most recent body weight of each animal.
The postdosing observations made during treatment occurred at the following times based on Cmax/Tmax for the two compounds from previous studies:
Prior to start of dosing, body weights were measured for randomization on Day 1. During the treatment, body weights were measured on Day 1 and Day 7. In addition, fasted body weights were measured prior to necropsy for calculation of organ/body weight ratios.
Throughout the study, food consumption was measured daily starting 3 days prior to start of dosing.
Blood samples for evaluation of hematology, coagulation, and serum chemistry parameters were collected from all animals from the retro-orbital plexus (under CO2/O2 anesthesia, for the main study animals) or jugular vein cannula (for the toxicokinetic animals) prior to necropsy. Due to residual heparin used to keep the cannulas patent for the toxicokinetic animals, coagulation samples from these rats, were not able to be analyzed. The animals were fasted overnight prior to blood collection. On the day of blood collection for clinical pathology analyses, the animals were not necropsied until after the blood was collected and the samples judged to be acceptable by the clinical pathology group.
An appropriate amount of blood was collected in EDTA-containing tubes. The whole blood samples were analyzed for the parameters indicated below in Table 11.
An appropriate amount of blood was collected in tubes containing sodium citrate and then centrifuged to obtain plasma for the determination of prothrombin time (PT) and activated partial thromboplastin time (APTT).
An appropriate amount of blood was collected in tubes without anticoagulant. The sample was allowed to clot and then was centrifuged to obtain serum. The serum was analyzed for the parameters indicated below in Table 12.
On the 1st and 7th day of dosing, blood samples (approximately 0.5 mL/sample) were collected from the jugular vein cannula for all toxicokinetic animals at the timepoints listed below into K3EDTA-containing tubes. […] Prior to each collection, a small sample of blood (with heparin blocking solution) was removed from the cannula and discarded. A new syringe was placed on the cannula, and the protocol-required sample was taken. The syringe with the blood sample was removed, and a new syringe with saline attached to the cannula. Blood volume was replaced with an equal volume of saline and then blocking solution placed in the cannula. […]

Bacillus subtilis = assay: Gyrase MIC, microdilution broth method (Protocol 1); format: cell-based
Acinetobacter baumannii = assay: Gyrase MIC against Gram negatives, microdilution broth method (Protocol 2); format: cell-based; conditions: for MIC90: Acinetobacter baumannii, 12 isolates tested
Clostridium difficile = assay: Gyrase MIC, agar dilution method (Protocol 3); format: cell-based; conditions: for MIC / MIC90: Clostridioides difficile; for MIC: ATCCBAA1382, Clostridium difficile ATCC BAA-1382; for MIC90 / MIC Range: Clostridium difficile, 16 isolates tested
Peptostreptococcus spp. = assay: Gyrase MIC, agar dilution method (Protocol 3); format: cell-based; conditions: 11 isolates tested
Bacillus cereus = assay: Gyrase MIC, microdilution broth method (Protocol 1); format: cell-based
[2] = test system: Bacteroides and Parabacter spp.; assay: Gyrase MIC, agar dilution method (Protocol 3); format: cell-based; conditions: 26 isolates tested
Streptococcus pneumoniae = assay: Gyrase MIC, microdilution broth method (Protocol 1); conditions: for MIC: ATCC10015
[3] = ATCC700603, Klebsiella pneumoniae ATCC 700603
[4] = ATCCBAA1705, Klebsiella pneumoniae ATCC BAA-1705
[5] = 300 mg/kg twice a day, compared to controls treated twice a day
[6] = ATCC6051, Bacillus subtilis (168) ATCC 6051
[7] = ATCC6638, Bacillus subtilis ATCC 6638
[8] = ATCC19606, Acinetobacter baumannii ATCC 19606
[9] = ATCCBAA1710, Acinetobacter baumannii ATCC BAA-1710
[10] = ATCC10987, Bacillus cereus ATCC 10987
[11] = ATCC14579, Bacillus cereus ATCC 14579

SMILES: CCNC(=O)Nc1nc2cc(-c3cnc(C(C)(C)O)nc3)c(F)c([C@H]3CCCO3)c2[nH]1 [Compound 23A, methanesulfonic acid salt of 1-ethyl-3-[6-fluoro-5-[2-(1-hydroxy-1-methyl-ethyl)pyrimidin-5-yl]-7-[(2R)-tetrahydrofuran-2-yl]-1H-benzimidazol-2-yl]urea]
- MIC (Klebsiella pneumoniae; [3]): 16 µg/mL
- MIC (Klebsiella pneumoniae; [4]): 12 µg/mL
- MIC90 (Klebsiella pneumoniae): > 8 µg/mL
- MIC90 (Bacteroides fragilis): 16 µg/mL
- MIC Range (Bacteroides fragilis): 1 to 16 µg/mL
- mean ALT [1, 5]: statistically higher
- mean AST [1, 5]: statistically higher
- Mean food consumption [1]: reduced during different intervals of the study
- NOAEL at 7 days ([1]; Crl:CD(SD), rat, in vivo, po, 300 mg/kg, male rats, twice a day for 7 days orally via gavage, read-out: NOAEL (No-Observable-Adverse-Effect-Level)): 300 mg/kg
- AUC ([1]; Crl:CD(SD), rat, in vivo, male rats, 100 mg/kg once a day for 7 days, oral gavage): 82 µg·h/mL
- AUC ([1]; Crl:CD(SD), rat, in vivo, male rats, 300 mg/kg twice a day for 7 days, oral gavage): 291 µg·h/mL
- adverse observations / mean body weight ([1]; male rats): No adverse observations or effects on mean body weight
- histopathological findings ([1]; male rats): No test article-related histopathological findings
- exposures for different dosage levels ([1]; male rats): dose related
- NOEL (No-Observable-Effect-Level) ([1]; Crl:CD(SD), rat, in vivo, po): 100 mg/kg
- dose levels without adverse toxicity ([1]; Crl:CD(SD), rat, in vivo, po): ≤ 600 mg/kg/day
- MIC (Bacillus subtilis; [6]): 4 µg/mL
- MIC (Bacillus subtilis; [7]): 2 µg/mL
- MIC (Acinetobacter baumannii; [8]): 8 µg/mL
- MIC (Acinetobacter baumannii; [9]): 6 µg/mL
- MIC90 (Acinetobacter baumannii): > 8 µg/mL
- MIC (Clostridium difficile): 0.38 µg/mL
- MIC90 (Clostridium difficile): 0.25 µg/mL
- MIC Range (Clostridium difficile): 0.06-4^ μg/ml
- MIC90 (Peptostreptococcus spp.): > 16 µg/mL
- MIC (Bacillus cereus; [10]): 0.031 µg/mL
- MIC (Bacillus cereus; [11]): 0.031 µg/mL
- MIC90 [2]: 16 µg/mL
- MIC Range [2]: 0.12 to 16 µg/mL

SMILES: CCNC(=O)Nc1nc2cc(-c3cnc(C(C)(C)O)nc3)cc([C@H]3CCCO3)c2[nH]1 [Compound 13, methanesulfonic acid salt of 1-ethyl-3-[5-[2-(1-hydroxy-1-methyl-ethyl)pyrimidin-5-yl]-7-[(2R)-tetrahydrofuran-2-yl]-1H-benzimidazol-2-yl]urea]
- MIC (Klebsiella pneumoniae; [3]): > 16 µg/mL
- MIC (Klebsiella pneumoniae; [4]): > 16 µg/mL
- MIC90 (Klebsiella pneumoniae): > 8 µg/mL
- MIC90 (Streptococcus pneumoniae): 0.06 µg/mL
- MIC Range (Streptococcus pneumoniae; 67 isolates tested, Protocol 1): 0.015 to 0.06 µg/mL
- MIC (Streptococcus pneumoniae): 0.022 µg/mL
- MIC90 (Bacteroides fragilis): > 16 µg/mL
- Mean food consumption [1]: reduced during different intervals of the study
- AUC at 7 day ([1]; Crl:CD(SD), rat, in vivo, male rats, 200 mg/kg once a day for 7 days, oral gavage): 844 µg·h/mL
- adverse observations / mean body weight ([1]; male rats): No adverse observations or effects on mean body weight
- histopathological findings ([1]; male rats): No test article-related histopathological findings
- exposures for different dosage levels ([1]; male rats): dose related
- NOEL (No-Observable-Effect-Level) ([1]; Crl:CD(SD), rat, in vivo, po): 200 mg/kg
- dose levels without adverse toxicity ([1]; Crl:CD(SD), rat, in vivo, po): up to 200 mg/kg/day
- MIC (Bacillus subtilis; [6]): > 8 µg/mL
- MIC (Bacillus subtilis; [7]): > 8 µg/mL
- MIC (Acinetobacter baumannii; [8]): > 16 µg/mL
- MIC (Acinetobacter baumannii; [9]): > 16 µg/mL
- MIC90 (Acinetobacter baumannii): > 8 µg/mL
- MIC (Clostridium difficile): 1 µg/mL
- MIC90 (Clostridium difficile): 1 µg/mL
- MIC Range (Clostridium difficile): 0.5 to 16 µg/mL
- MIC90 (Peptostreptococcus spp.): > 16 µg/mL
- MIC (Bacillus cereus; [10]): 0.5 µg/mL
- MIC (Bacillus cereus; [11]): 0.5 µg/mL
- MIC90 [2]: > 16 µg/mL

SMILES: CCNC(=O)Nc1nc2cc(-c3cnc(C(C)(C)OP(=O)([O-])[O-])nc3)c(F)c([C@H]3CCCO3)c2[nH]1.[Na+].[Na+] [Compound W, disodium (R)-2-(5-(2-(3-ethylureido)-6-fluoro-7-(tetrahydrofuran-2-yl)-1H-benzo[d]imidazol-5-yl)pyrimidin-2-yl)propan-2-yl phosphate]
- MIC (Streptococcus pneumoniae): 0.25 µg/mL
